Holding throughout (assay type): cell-based, human
In test [1] the test system is ASCs. Nature of the test: Monolayer osteogenic differentiation of ASCs (Alizarin Red S, calcium quantification). As to conditions: for calcium deposition per cell / total calcium deposition: ASCs in OM for 21 days, PDGF-BB 0, 2, 20 ng/mL or AG1295 0, 1, 10 μM. The method, then:
(§1) Vascular medium (VM) consisted of: Endothelial Basal Medium-2 (Lonza), 6% FBS, 1% penicillin/streptomycin, 10 ng/mL VEGF165, 1 ng/mL FGF-2, and 1 μg/mL L-ascorbic acid-2-phosphate (Sigma). For monolayer osteogenic differentiation experiments, control medium consisted of low glucose DMEM (GIBCO Invitrogen), 6% FBS, and 1% penicillin/streptomycin; Osteogenic Medium (OM) consisted of control medium plus 10 mM β-glycerophosphate (Sigma) and 50 μM L-ascorbic acid-2-phosphate. For osteogenic differentiation in fibrin gels, OM also included 10 ng/mL VEGF165 and 1 ng/mL FGF-2 to support vascular viability. The composition of FGF-2 and dexamethasone in VM and OM were optimized to support both vascular and osteogenic development (FIG. 2). […] All growth factors were purchased from PeproTech.
(§2) For monolayer experiments, ASCs were seeded at 5000 cells/cm^2 and cultured in either control medium or OM for 21 days, with the addition of either PDGF-BB or PDGF receptor inhibitor tyrphostin AG1295 (Santa Cruz Biotechnology). Mineralization was assessed via Alizarin Red S staining and quantification of calcium content. For fibrin gel experiments, samples were cultured in VM for up to 8 days followed by up to 12 days of OM supplemented with VEGF and FGF-2. Mineralization was assessed via quantification of calcium content normalized to DNA content. For Alizarin Red S staining, monolayers were washed twice with PBS, fixed with 3.7% formaldehyde for 20 min, and then washed again three times. Samples were subsequently incubated for 10 min with 40 mM Alizarin Red S (Sigma) and washed extensively prior to imaging. To quantify calcium content in each sample, monolayers or whole fibrin gels were washed twice with PBS and then incubated with 0.5 N HCl overnight at 4° C. with agitation. Calcium content in the sample supernatants was quantified using a colorimetric Calcium LiquiColor Test (Stanbio). DNA content was quantified using a PicoGreen dsDNA quantitation kit (Molecular Probes) as previously described. Hutton D. L., et al., Tissue Eng Part A 18, 1729-40, 2012.
The effects of exogenous PDGF-BB on osteogenic differentiation and vascular morphogenesis of ASCs were studied independently. ASCs were cultured in OM for 21 days with the addition of either PDGF-BB (0 ng/mL, 2 ng/mL, or 20 ng/mL) or PDGF receptor inhibitor AG1295 (0 μM, 1 μM, or 10 μM).

For test [2], the system named is ASCs. Kind of test: Vascular morphogenesis of fibrin-encapsulated ASC spheroids in vascular medium. The method, then:
Cells were trypsinized and resuspended at a concentration of 400,000 cells/mL (this concentration varied in the aggregation study where different cluster sizes were being compared) in culture medium containing 0.24% (w/v) methylcellulose (Sigma). The cell suspension was pipetted as 10 μL drops onto inverted Petri dish caps, which were then reverted and placed on dish bottoms containing sterile water to reduce evaporation. Dishes were incubated at 37° C. overnight to allow cellular aggregation at the air-liquid interface. The dish caps were then flooded with PBS to allow bulk collection and transfer of the spheroids to conical tubes.
(§3) Settled spheroid pellets were resuspended in fibrinogen (8 mg/mL final; Sigma), followed by the addition of thrombin (2.5 U/mL final; Sigma) to initiate gelation. Fibrin gels (35 μL) containing 40 spheroids each (in the aggregation study the number of spheroids per gel was varied to keep the total cell number constant) were pipetted into 6-mm diameter wells and incubated at 37° C. for 30 minutes to allow complete gelation prior to the addition of culture medium. Samples were then cultured for two to three weeks, depending on the experiment, with media changed every other day.
as §1
(§4) All incubation and washing steps were carried out at 4° C. with gentle agitation. Samples were fixed with 3.7% formaldehyde for 3 hrs, and then washed with PBS three times for 30 min each. Fixed gels were carefully removed from their wells and transferred to microcentrifuge tubes for subsequent staining procedures. Gels were permeabilized and blocked for 4 hrs with 0.2% triton X-100 and 5% normal goat serum (Sigma) in PBS with 0.1% Tween (PTw). Samples were then incubated overnight with primary antibodies diluted in blocking solution, followed by three 1-hr washes in PTw. Primary antibodies included: mouse anti-CD31 (4 μg/mL; Santa Cruz Biotechnology) and either rabbit anti-laminin (7 μg/mL; Sigma), rabbit anti-osteocalcin (10 μg/mL; Santa Cruz Biotechnology), or rabbit anti-NG2 (10 μg/mL; Millipore). Samples were then incubated overnight with DyLight 488-conjugated goat anti-mouse and DyLight 649-conjugated goat anti-rabbit (both 1:400; Jackson ImmunoResearch) diluted in blocking solution, followed by three 1-hr washes in PTw. Lastly, samples were blocked in 5% normal mouse serum for 4 hrs, incubated overnight with Cy3-conjugated mouse anti-αSMA (7 μg/mL; Sigma), and then washed three times for 1 hr each. Gels were mounted in 70% glycerol in chamber slides and imaged using a Zeiss LSM 510 confocal microscope with a 5× objective.
Confocal z-stacks of immunostained gels were z-projected and thresholded for subsequent quantification of vessel network parameters (n=6 images per group). Thresholded images were analyzed with AngioQuant software, Niemisto A., et al., IEEE Trans Med Imaging 24, 549-53, 2005, to quantify total vessel length, area, and interconnectivity. ImageJ software (NIH) was used to quantify pericyte coverage of vessels, which was defined as αSMA+ area within at least 5 μm of the abluminal face of vessel networks. […]

Test [3] has as its system adipose-derived stem cells (ASCs). Kind of test: Osteogenic differentiation of ASCs with transient cytokine exposure. The conditions noted are these: IL-1β only for the first two days, then cultured without it. An excerpt: In each case, the cytokine was provided for the first two days of culture and removed for the remaining 19 days. The samples are stained for calcium deposition (red) which is indicative of new bone formation;
Accordingly, cells were provided with IL-1β only for the first two days and cultured in the absence of IL-1β for the remaining three weeks of culture.

For test [4], the system named is ASCs. Nature of the test: Vascularized bone co-development: encapsulated ASC spheroids, VM 8 days then OM 12 days. The method, then:
as §3
as §1, with “viability.” for “viability. The composition of FGF-2 and dexamethasone in VM and OM were optimized to support both vascular and osteogenic development (FIG. 2).”
as §2, §4

Where [5] appears, read: medium optimization with dexamethasone and FGF-2.

With `Cc1cc2ncc(-c3ccccc3)nc2cc1C` [AG1295, tyrphostin AG1295, reference compound], in the test on ASCs [1], the “calcium deposition per cell” value is given as “unchanged relative to the OM only group” and the total calcium deposition entry is “decreased in a dose dependent manner”. Also, the pericyte coverage entry with ASCs [2] (VM for 14 days) was “only slightly reduced”.
Turning to “FGF-2: fibroblast growth factor-2 (PeproTech)”, the “calcium deposition in osteogenic cultures” value in the test with ASCs [1] (1 ng/mL FGF-2, dexamethasone 0 nM to 10 nM) is recorded as “significantly greater calcium deposition”. Also, in the test on ASCs [2] (setting [5]), the “pericyte coverage in vascular cultures” value is listed as “slight increase”, the “vessel network growth / length in vascular cultures” value was “slight increase” and the “vessel width in vascular cultures” value is “increased vessel width”.
In the case of IL-1β: pro-inflammatory cytokine, in test [3], the “ASC differentiation into bone-forming cells” value is “dose dependent effect”.
Regarding “PDGF-BB: exogenous platelet-derived growth factor-BB, dimeric glycoprotein of two B chains, purchased from PeproTech”, in the test with ASCs [1], the “calcium deposition per cell” value is given as “significantly increased in a dose-dependent manner” and the total calcium deposition result is recorded as “significantly increased in a dose-dependent manner”. Besides, in the test with ASCs [4] (20 ng/mL), the “calcium content versus control group (VM-OM)” value is “substantially greater than both” and the “vascular network length versus control group (VM-OM)” value is “substantially greater than both”. Moreover, in the test with ASCs [4] (20 ng/mL each), the “calcium deposition, PDGF-BB greater than BMP-2” value was determined as 4.2 fold; the “calcium per cell, PDGF-BB greater than BMP-2” value came to 5.6 fold; the “total vascular network length, PDGF-BB higher than BMP-2” value was found to be 2.3 fold. Besides, in the test on ASCs [4] (20 ng/mL throughout), the “calcium content per cell, greater than without PDGF-BB” value stood at 5.2 fold; the “osteocalcin production (semiquantitative), greater than without PDGF-BB” value turned out to be 1.4 fold; the “vascular network length, greater than without PDGF-BB” value was found to be 2.7 fold; the “αSMA intensity, less than without PDGF-BB” value was determined as 2.1 fold. Further, the “increase in total vessel length” value in the test with ASCs [2] (2 ng/mL, VM for 14 days) came to 1.4 fold. Moreover, the vessel width result in the test with ASCs [2] (20 ng/mL, VM for 14 days) is on record as “noticeably wider”. Further, in the test on ASCs [2] (VM for 14 days), the “effect on total vessel length overall” value is recorded as “did not have statistically significant effects” and the “reduction of pericyte coverage” value turned out to be 2.9 fold.

The values are drawn from patent US20160095958A1, “BONE REGENERATION USING STROMAL VASCULAR FRACTION, PLATELET-DERIVED GROWTH FACTOR-RICH HYDROGEL, THREE-DIMENSIONAL PRINTED POLY-EPSILON-CAPROLACTONE SCAFFOLDS” (THE JOHNS HOPKINS UNIVERSITY, priority 2013, published 2016).
